The test system of test [1] is TNFα mRNA. Description: Cellular TNFα mRNA level by quantitative RT-PCR in 3T3-L1 adipocytes. It counts as cell-based, mouse. To be noted: sesamin 50 μM, 8 days of culturing, vs control. As to the method: (§1) Mouse-derived 3T3-L1 cells were treated for 42 hours in culturing solution containing insulin, dexamethasone and isobutylxanthine, for differentiation to adipocytes. The culture solution was removed and immediately combined with sesamin-free culturing solution (control) or culturing solution containing sesamin at a final concentration of 50 μM (sesamin), and after culturing for 48 hours, the culture solution was exchanged and culturing was continued for 6 days. The cell culturing was carried out in an incubator controlled to 5% CO2 gas-95% air at a temperature of 37° C. The cellular mRNA levels for adiponectin and TNFα were measured by quantitative RT-PCR using CYBR-Green (BMC Biotechnol. 3, 18, 2003).

Test [2] concerns Zucker fatty rats. Description: Plasma adiponectin concentration of Zucker fatty rats, ELISA. It counts as in vivo, rat. To be noted: male Zucker fatty rats, 0.1% sesamin in AIN-93G feed for four weeks, after overnight starving; control feed 6.06 ± 0.48. The procedure:
The rats were divided into two groups with five rats per group, with the first group being freely given AIN-93G (growth stage feed, product of Nihon Crea) as the control group and the second group being freely given feed comprising 0.1% sesamin added to AIN-93G, for a four week period. After four weeks, blood was sampled after overnight starving, and the plasma was separated. The plasma adiponectin concentrations were assayed using an Enzyme-Linked ImmunoSorbent Assay (Mouse/Rat Adiponectin ELISA Kit, product of Otsuka Pharmaceutical).
(An ELISA detects its analyte on a solid surface through an enzyme-linked reagent.)

Test [3] deals with 3T3-L1 cells. Description: Effect of inducing size reduction of adipocytes in pre-differentiated 3T3-L1 cell cultures. It counts as cell-based, mouse. The following applies: sesamin 50 μM, 3T3-L1 cells pre-differentiated to adipocytes, 8 days of culturing, vs control.
The subject of test [4] is adiponectin. Description: Adiponectin production by 3T3-L1 adipocytes, ELISA of culture solution. It counts as cell-based, mouse. The following applies: sesamin 50 μM, vs control. As to the method:
as §1, with “The” for “The cellular mRNA levels for”, “concentrations in the culture solutions” for “and TNFα”, “Enzyme-Linked ImmunoSorbent Assay (Mouse/Rat Adiponectin ELISA Kit, Otsuka Pharmaceutical).” for “quantitative RT-PCR using CYBR-Green (BMC Biotechnol. 3, 18, 2003).”

In test [5] the test system is adiponectin mRNA. Description: Cellular adiponectin mRNA level by quantitative RT-PCR in 3T3-L1 adipocytes. Format: cell-based, mouse. The following applies: sesamin 50 μM, 8 days of culturing. The procedure:
as §1

“And” between values parts separate entries of the source, which are not always exact repeats. Equal entries are not always repeated.

For the compound `c1cc2c(cc1[C@H]1OC[C@H]3[C@@H]1CO[C@@H]3c1ccc3c(c1)OCO3)OCO2` [sesamin], the “TNFα mRNA levels in the adipocytes” value in test [1] was “decreased”. The Plasma adiponectin in test [2] is 6.53 µg/mL and 6.53 ± 0.54 µg/mL. In addition, the “influence on adipocyte size” value in test [3] is “numerous small adipocytes”. Besides, the “increase of adiponectin concentration in the cell cultured medium” value in test [4] stood at 1.6 fold. Moreover, the “adiponectin mRNA levels in the adipocytes, increase with respect to the control group” value in test [5] was found to be 7 fold.

Values taken from patent US20070208077A1, “Adiponectin Enhancer” (priority 2004, published 2007).
